The results in this text go back to paper PMC3486884 (PLoS Pathogens, 2012).

Structures are written as SMILES. Read-outs that look alike come from different tables or passages of the source.

The test system of this test is influenza virus (strain A/Puerto Rico/8/34/H1N1 depicted PR8). The conditions noted are these: n=2.

For `O=C(Nc1ccc([N+](=O)[O-])cc1Cl)c1cc(Cl)cc(Cl)c1O` [TVB-1326], the relative infection is, setting by setting: (0.1 µM) 1.02; (0.3 µM) 0.94; (0.9 µM) 0.90; (2.8 µM) 0.78; (8.3 µM) 0.68; (25.0 µM) 0.01.
For the molecule `O=C(Nc1ccc([N+](=O)[O-])cc1Cl)c1cc(Cl)ccc1OCCOc1ccccc1` [TVB-1329], the relative infection is given as 0.99 (0.1 µM); 0.98 (0.3 µM); 1.04 (0.9 µM); 0.99 (2.8 µM); 0.69 (8.3 µM); 0.04 (25.0 µM).
With `O=C(Nc1ccc([N+](=O)[O-])cc1Cl)c1ccccc1O` [TVB-1332], the relative infection worked out at 1.04 (0.1 µM); 1.06 (0.3 µM); 1.04 (0.9 µM); 0.02 (8.3 µM); 0.00 (25.0 µM).
For the molecule `CS(=O)(=O)c1ccc(NC(=O)c2cc(Cl)ccc2O)c(Cl)c1` [TVB-1338], the relative infection is 0.81 (0.1 µM); 0.81 (0.3 µM); 0.78 (0.9 µM); 0.82 (2.8 µM); 0.78 (8.3 µM).
